# From ChEMBL document CHEMBL5370678, “Covalent Stapling of the Cereblon Sensor Loop Histidine Using Sulfur-Heterocycle Exchange” (ACS Med Chem Lett, 2023)
# pIC50: −log10 of the molar value. Calls of active or inactive are those of the source. The rule behind the calls is not given here.
# Tests used:
# [1] = Stability of the compound in human plasma assessed as half life at 1 uM by LC-MS/MS analysis; type: ADME, cell-free
# [2] = Binding affinity to human StrepTag-Avi-CRBN-His6-Spy-fused DDB1deltaB mutant complex expressed in baculovirus infected high-five insect cells assessed as labeling of His353 residue at 15 uM measured after 24 hrs by LC-MS analysis relative to control; details: Insect cell
# [3] = Cytotoxicity against human MOLT-4 cells assessed as reduction in cell viability incubated for 24 hrs by CellTiter Glo Luminescent cell viability assay; type: toxicity, cell-based
# [4] = Stability of the compound in human liver microsomes assessed as half life at 1 uM by LC-MS/MS analysis; type: ADME, Microsome
# [5] = Stability of the compound in human hepatocytes assessed as half life at […] by LC-MS/MS analysis; type: ADME, cell-based, Hepatocyte
# MOLT-4 = test: Induction of protein degradation in human MOLT-4 cells at 1 uM measured after 5 hrs by LC-MS analysis; type: functional, cell-based
# Protein cereblon = Protein cereblon (Homo sapiens, UniProt Q96SW2); test: Displacement of BODIPY-lenalidomide from human N-terminal NanoLuc-fused CRBN expressed in HEK293T cells incubated for 2 hrs by NanoBRET assay; type: cell-based
# [6] = Drug metabolism in human plasma assessed as glutarimide-hydrolysis at 10 uM measured after 120 mins by LC-UV-MS analysis; type: ADME, cell-free; details: 2 h
# [7] = Drug metabolism in human plasma assessed as sulfonyl imidazole motif hydrolysis at 10 uM measured after 120 mins by LC-UV-MS analysis; type: ADME, cell-free; details: 2 h
# Sequence of Protein cereblon (Q96SW2 whole entry, the tested form may be a part): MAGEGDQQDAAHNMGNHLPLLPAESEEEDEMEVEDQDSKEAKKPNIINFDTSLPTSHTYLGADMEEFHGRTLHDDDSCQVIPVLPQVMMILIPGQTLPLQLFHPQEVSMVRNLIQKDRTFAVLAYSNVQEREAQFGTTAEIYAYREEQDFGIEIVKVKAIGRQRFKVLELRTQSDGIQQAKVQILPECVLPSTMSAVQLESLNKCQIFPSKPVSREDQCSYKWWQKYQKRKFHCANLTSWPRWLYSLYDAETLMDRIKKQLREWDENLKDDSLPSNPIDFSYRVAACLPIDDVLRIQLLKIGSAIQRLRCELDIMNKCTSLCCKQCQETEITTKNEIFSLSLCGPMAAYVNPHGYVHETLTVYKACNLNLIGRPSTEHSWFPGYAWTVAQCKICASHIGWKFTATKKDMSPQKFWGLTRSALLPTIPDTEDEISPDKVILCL
Compound,half-life at 1 µM [1] [h],Activity [2] [%],also measured
O=C1CCC(N2Cc3ccc(S(=O)(=O)n4cc(C(F)(F)F)cn4)cc3C2=O)C(=O)N1 (centres undefined),0.167,90,–
O=C1CCC(N2Cc3ccc(S(=O)(=O)n4cnc(F)c4)cc3C2=O)C(=O)N1 (centres undefined),0.317,90,–
Cc1cn(S(=O)(=O)c2ccc3c(c2)C(=O)N(C2CCC(=O)NC2=O)C3)c(=O)[nH]c1=O (centres undefined),3.98,90,–
O=C1CCC(N2Cc3ccc(S(=O)(=O)n4ccnc4)cc3C2=O)C(=O)N1 (centres undefined),1.57,> 95,CC50 at 24 h [3]: > 10 µM; half-life at 1 µM [4]: > 2.42 h; half-life [5]: > 3.62 h; Activity (MOLT-4): inactive
O=C1CCC(N2Cc3ccc(S(=O)(=O)F)cc3C2=O)C(=O)N1 (centres undefined),–,> 95,pIC50 (Protein cereblon): 8.96
O=C1CCC(N2Cc3ccc(S(=O)(=O)n4cnc(C(F)(F)F)c4)cc3C2=O)C(=O)N1 (centres undefined),0.108,75,–
O=C1CCC(N2Cc3ccc(OS(=O)(=O)F)cc3C2=O)C(=O)N1 (centres undefined),–,75,–
O=C1CCC(N2Cc3ccc(S(=O)(=O)n4cncn4)cc3C2=O)C(=O)N1 (centres undefined),< 0.0167,90,–
O=C1CCC(N2Cc3ccc(S(=O)(=O)n4ccc(=O)[nH]c4=O)cc3C2=O)C(=O)N1 (centres undefined),2.72,90,–
O=C1CCC(N2Cc3ccc(S(=O)(=O)n4cc(F)cn4)cc3C2=O)C(=O)N1 (centres undefined),1.53,67,–
O=C1CCC(N2Cc3ccc(S(=O)(=O)n4ccc(C(F)(F)F)n4)cc3C2=O)C(=O)N1 (centres undefined),0.233,90,–
Cc1cn(S(=O)(=O)c2ccc3c(c2)C(=O)N(C2CCC(=O)NC2=O)C3)cn1 (centres undefined),4.78,< 5,–
O=C1CCC(N2Cc3ccc(S(=O)(=O)n4nccn4)cc3C2=O)C(=O)N1 (centres undefined),–,90,–
Cc1cnn(S(=O)(=O)c2ccc3c(c2)C(=O)N(C2CCC(=O)NC2=O)C3)c1 (centres undefined),> 4.82,< 5,–
O=C1CCC(N2Cc3ccccc3C2=O)C(=O)N1 (centres undefined),–,–,CC50 at 24 h [3]: > 10 µM; half-life at 1 µM [4]: > 2.42 h; half-life [5]: > 3.62 h; Drug metabolism [6]: Metabolite_Detected; Drug metabolism [7]: Metabolite_Detected
O=C1CCC(N2Cc3ccc(S(=O)(=O)n4ccc(F)n4)cc3C2=O)C(=O)N1 (centres undefined),1.92,37,–
Nc1ccn(S(=O)(=O)c2ccc3c(c2)C(=O)N(C2CCC(=O)NC2=O)C3)c(=O)n1 (centres undefined),> 4.82,55,–
